Structures can show the parent of a compound that is named as a salt. Where two headings read alike, the source gives them in different places.
Legend:
TYK2 = TYK2 (Homo sapiens (Human), UniProt P29597); assay: JAK Caliper Enzyme Assay at 1 mM ATP (TYK2); type: biochemical; details: Caliper assay at 1 mM ATP
JAK2 = JAK2 (Homo sapiens (Human), UniProt O60674); assay: JAK Caliper Enzyme Assay at 1 mM ATP (JAK2); type: biochemical; details: Caliper assay at 1 mM ATP
[1] = test system: rhIFNγ stimulated STAT-3 phosphorylation in the A549 human epithelial cell line; assay: A549 Cell Assay: Inhibition of pSTAT3; type: cell-based; details: A549 cells
Experimental: A549 Cell Assay: Inhibition of pSTAT3
An assay measuring the efficacy of JAK inhibitors on the functional response of recombinant human interferon γ (rhIFNγ) stimulated STAT-3 phosphorylation in the A549 human epithelial cell line.
A549 cells (ATCC #CCL-185), were plated at 30,000 cells/well in 96 well flat bottomed tissue culture plates (BD#353072) in 200 μL of growth medium (DMEM, Pfizer media prep, with 10% Fetal Bovine Serum, Sigma #F4135, 2 mM L-Glutamine, Pfizer media prep, 100 U/mL penicillin, Pfizer media prep, and 200 μg/ml streptomycin, Pfizer media prep), and cultured at 37° C., 5% CO2 incubator for 18 hours. Growth medium was removed by vacuum aspiration (V&P Scientific #vp187 bp-60), and 90 μL of pre-warmed assay medium (DMEM with 0.2% BSA, Miltenyi #130-091-376) was added to each well and incubated for 15 minutes at 37° C. 10 μL of vehicle control or test compound (final concentration range of 0.3 nM to 10 μM with 0.1% DMSO) was added to the cells. Plates were incubated at 37° C. for 1 hour. After compound incubation, 10 μL of 220 ng/mL recombinant human IFNγ (R&D Systems #285-IF, final rhIFNγ concentration of 20 ng/mL) was added to the cells and plates were incubated for 30 minutes at 37° C. Wells containing A549 cells, medium with 0.1% DMSO and no rhIFNγ were used as background controls. After rhIFNγ stimulation, media was aspirated from each well and 35 μL/well of iced-cold MSD lysis buffer containing protease and phosphatase inhibitors from Phospho-STAT3 Tyr705 assay kit (Meso-Scale Discovery #K150DID) was added to each well. Plates were incubated at 4° C. with shaking for 30 minutes. Cell lysates were assayed following the MSD Phospho-STAT3 Tyr705 assay kit protocol to detect pSTAT3.
(§1) Data were collected and transformed into percent inhibition and calculated using the following formula: […]

JAK3 = JAK3 (Homo sapiens (Human), UniProt P52333); assay: JAK Caliper Enzyme Assay at 1 mM ATP (JAK3); type: biochemical; details: Caliper assay at 1 mM ATP
[2] = test system: rhIL-2 stimulated STAT5 phosphorylation in isolated human T cells; assay: Human T Cell Assay: Inhibition of pSTAT5; type: cell-based
Experimental: Human T Cell Assay: Inhibition of pSTAT5
An assay measuring the efficacy of JAK inhibitors on the functional response of recombinant human interleukin-2 (rhIL-2) stimulated STAT5 phosphorylation in isolated human T cells.
Human whole blood from individual donors was collected from the phlebotomy unit on-site. Peripheral venous blood (30-60 mL) from healthy volunteers of either sex was used as the source of T cells. T cell isolation from venous whole blood is routinely performed in a class II microbiological safety cabinet. Each sample was collected into between 3 and 6 10 mL Sodium Heparin Vacutainer tubes (BD #367874). The blood was poured into sterile 50 mL conicals (Corning #430828) and incubated with the T cell Rosette Sep Cocktail (Stemcell Technologies #15061) at 50 μL/mL antibody/blood ratio for 20 min. with shaking at room temperature. The blood/antibody mixture was then diluted 1:2 with PBS (Pfizer media prep)/2% FBS (Sigma #F4135) and 30 mL of the mixture was layered onto 15 mL Ficoll-Hypaque (GE Healthcare #17-1440-03) in 50 mL conical tubes. The tubes were then centrifuged at 1200×g for 20 min. at room temperature with no brake. Following centrifugation the T cells formed a buffy coat between the Ficoll-Hypaque and plasma layers. The plasma above the buffy coats was removed to within 5 mm of the buffy coat using a sterile Pasteur pipette. The buffy coats were then collected into fresh sterile 50 mL conical tubes containing 25 mL PBS/2% FBS (2 buffy coats per 50 mL conical). PBS/2% FBS was added to the buffy coat cells such that the final volume in the tube was 50 mL. The tubes were then centrifuged at 200×g for 15 min. at room temperature. The supernatant was discarded and the pellet re-suspended in 10-20 mL of DMEM (Pfizer media prep) Assay media/0.2% BSA (Miltenyi #130-091-376). A differential cell count was performed using a haemacytometer and cells were diluted to 1.1×10^6 T cells/ml in DMEM/0.2% BSA media. Compounds (10 mM-0.3 μM) were diluted with Hanks Balanced Salt Solution (HBSS) (Sigma #H6648) at 1:100 dilution. Immediately following cell isolation and compound dilution, 90 μl/well of T cells (˜1×10^6/ml) in assay medium (DMEM+0.2% BSA) was added to the VWR Deep well V bottom plate (#3906-520-300). 10 μl/well of compound (final concentration range of 10 μM-0.3 nM with 0.1% DMSO) or 0.1% DMSO in HBSS as controls was added to the appropriate wells. Plates were incubated for 1 hour at 37° C., 5% CO2 incubator. 10 μl of 3.3 μg/mL rhIL-2 (R&D Systems #202-IL) was added to the cells (300 ng/ml final assay concentration). Wells containing T cells, medium with 0.1% DMSO and no rhIL-2 were used as background controls. […]
as §1

JAK1 = JAK1 (Homo sapiens (Human), UniProt P23458); assay: JAK Caliper Enzyme Assay at 1 mM ATP (JAK1); type: biochemical; details: Caliper assay at 1 mM ATP
JAK1, sequence (P23458 whole entry, species assumed): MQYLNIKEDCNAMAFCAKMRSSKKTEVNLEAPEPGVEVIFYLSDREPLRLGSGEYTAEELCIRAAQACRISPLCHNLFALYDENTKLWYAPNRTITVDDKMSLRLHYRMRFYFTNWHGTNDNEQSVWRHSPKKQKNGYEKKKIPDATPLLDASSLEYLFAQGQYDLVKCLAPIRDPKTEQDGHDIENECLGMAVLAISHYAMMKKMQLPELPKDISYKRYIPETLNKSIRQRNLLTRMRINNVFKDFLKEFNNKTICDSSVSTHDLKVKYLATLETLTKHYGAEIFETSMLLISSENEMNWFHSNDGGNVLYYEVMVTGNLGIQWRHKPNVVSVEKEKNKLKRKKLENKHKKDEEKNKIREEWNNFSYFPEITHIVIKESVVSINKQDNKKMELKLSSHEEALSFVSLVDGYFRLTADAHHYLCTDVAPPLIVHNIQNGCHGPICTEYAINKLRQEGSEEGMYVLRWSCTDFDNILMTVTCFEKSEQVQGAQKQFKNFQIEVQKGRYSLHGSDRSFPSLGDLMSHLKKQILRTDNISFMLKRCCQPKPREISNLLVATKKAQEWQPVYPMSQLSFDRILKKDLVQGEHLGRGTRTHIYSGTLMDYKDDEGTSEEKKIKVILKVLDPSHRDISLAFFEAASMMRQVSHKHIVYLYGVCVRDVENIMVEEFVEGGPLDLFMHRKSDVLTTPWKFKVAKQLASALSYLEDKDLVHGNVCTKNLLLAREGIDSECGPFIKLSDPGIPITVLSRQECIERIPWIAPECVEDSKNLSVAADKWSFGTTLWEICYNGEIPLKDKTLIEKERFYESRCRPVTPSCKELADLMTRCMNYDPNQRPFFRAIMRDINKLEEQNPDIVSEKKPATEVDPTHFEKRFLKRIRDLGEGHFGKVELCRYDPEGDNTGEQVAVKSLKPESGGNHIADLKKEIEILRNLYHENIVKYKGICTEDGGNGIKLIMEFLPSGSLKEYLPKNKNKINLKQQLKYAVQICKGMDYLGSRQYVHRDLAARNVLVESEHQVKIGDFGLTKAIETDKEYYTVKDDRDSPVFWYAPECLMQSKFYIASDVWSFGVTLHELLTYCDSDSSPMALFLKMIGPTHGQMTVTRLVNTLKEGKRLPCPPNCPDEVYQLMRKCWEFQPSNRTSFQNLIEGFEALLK

TYK2, sequence (P29597 whole entry, species assumed): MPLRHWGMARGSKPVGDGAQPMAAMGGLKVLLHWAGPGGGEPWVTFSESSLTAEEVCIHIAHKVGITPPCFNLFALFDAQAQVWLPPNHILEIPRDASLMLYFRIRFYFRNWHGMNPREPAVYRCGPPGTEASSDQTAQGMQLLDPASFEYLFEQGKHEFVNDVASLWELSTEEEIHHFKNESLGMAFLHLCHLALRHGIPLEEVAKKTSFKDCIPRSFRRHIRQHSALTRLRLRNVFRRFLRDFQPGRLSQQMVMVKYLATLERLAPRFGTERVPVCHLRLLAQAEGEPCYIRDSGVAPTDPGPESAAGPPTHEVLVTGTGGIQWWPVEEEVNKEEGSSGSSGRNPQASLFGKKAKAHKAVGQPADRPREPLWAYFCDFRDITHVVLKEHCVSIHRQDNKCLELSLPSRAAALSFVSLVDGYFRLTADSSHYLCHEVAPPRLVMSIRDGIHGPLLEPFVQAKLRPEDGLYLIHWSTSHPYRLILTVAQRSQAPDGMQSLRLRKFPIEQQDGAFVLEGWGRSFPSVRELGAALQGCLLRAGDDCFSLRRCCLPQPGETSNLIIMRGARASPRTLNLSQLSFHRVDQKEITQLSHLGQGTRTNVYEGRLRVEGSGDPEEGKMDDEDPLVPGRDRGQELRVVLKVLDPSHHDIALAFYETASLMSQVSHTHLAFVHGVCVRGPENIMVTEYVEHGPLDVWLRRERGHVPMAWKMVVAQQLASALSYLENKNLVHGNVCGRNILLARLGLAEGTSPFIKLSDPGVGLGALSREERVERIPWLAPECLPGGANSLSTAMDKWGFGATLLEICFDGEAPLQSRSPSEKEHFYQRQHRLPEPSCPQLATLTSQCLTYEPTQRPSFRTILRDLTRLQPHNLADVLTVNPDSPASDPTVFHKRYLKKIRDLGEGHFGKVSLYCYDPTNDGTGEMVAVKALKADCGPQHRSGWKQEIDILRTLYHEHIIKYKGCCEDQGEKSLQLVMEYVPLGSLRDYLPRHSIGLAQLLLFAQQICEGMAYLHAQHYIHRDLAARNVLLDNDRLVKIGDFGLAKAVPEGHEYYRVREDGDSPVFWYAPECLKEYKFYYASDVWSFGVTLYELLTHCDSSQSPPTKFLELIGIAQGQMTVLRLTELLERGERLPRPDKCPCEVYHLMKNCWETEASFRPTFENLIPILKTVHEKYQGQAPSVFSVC
JAK2, sequence (O60674 whole entry, species assumed): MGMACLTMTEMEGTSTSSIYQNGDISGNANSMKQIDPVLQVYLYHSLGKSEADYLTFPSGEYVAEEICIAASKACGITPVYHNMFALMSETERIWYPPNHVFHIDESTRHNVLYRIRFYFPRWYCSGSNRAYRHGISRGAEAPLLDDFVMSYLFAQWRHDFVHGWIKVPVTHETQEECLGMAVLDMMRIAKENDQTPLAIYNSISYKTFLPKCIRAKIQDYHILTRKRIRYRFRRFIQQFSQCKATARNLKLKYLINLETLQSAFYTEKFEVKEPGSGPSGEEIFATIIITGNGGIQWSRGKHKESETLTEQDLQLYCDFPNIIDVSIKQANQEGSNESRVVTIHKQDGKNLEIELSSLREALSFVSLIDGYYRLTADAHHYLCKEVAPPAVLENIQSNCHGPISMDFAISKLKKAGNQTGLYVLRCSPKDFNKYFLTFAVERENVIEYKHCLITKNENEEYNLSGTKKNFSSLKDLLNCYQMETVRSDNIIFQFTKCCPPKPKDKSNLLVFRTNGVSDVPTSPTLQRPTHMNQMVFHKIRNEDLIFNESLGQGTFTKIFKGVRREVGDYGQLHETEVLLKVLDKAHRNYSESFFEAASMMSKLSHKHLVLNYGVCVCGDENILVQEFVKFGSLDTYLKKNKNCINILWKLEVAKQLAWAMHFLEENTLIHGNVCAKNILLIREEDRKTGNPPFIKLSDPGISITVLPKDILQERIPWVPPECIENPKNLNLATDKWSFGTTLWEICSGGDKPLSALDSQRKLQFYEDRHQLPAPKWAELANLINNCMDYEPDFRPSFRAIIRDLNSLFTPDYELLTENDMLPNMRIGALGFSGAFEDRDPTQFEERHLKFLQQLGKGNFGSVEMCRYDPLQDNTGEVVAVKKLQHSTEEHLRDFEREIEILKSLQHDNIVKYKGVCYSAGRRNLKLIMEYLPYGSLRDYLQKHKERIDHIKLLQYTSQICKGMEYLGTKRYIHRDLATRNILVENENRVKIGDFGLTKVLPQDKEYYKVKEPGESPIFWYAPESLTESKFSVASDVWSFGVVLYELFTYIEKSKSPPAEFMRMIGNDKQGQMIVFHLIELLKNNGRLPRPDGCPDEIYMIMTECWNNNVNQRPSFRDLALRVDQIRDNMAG
JAK3, sequence (P52333 whole entry, species assumed): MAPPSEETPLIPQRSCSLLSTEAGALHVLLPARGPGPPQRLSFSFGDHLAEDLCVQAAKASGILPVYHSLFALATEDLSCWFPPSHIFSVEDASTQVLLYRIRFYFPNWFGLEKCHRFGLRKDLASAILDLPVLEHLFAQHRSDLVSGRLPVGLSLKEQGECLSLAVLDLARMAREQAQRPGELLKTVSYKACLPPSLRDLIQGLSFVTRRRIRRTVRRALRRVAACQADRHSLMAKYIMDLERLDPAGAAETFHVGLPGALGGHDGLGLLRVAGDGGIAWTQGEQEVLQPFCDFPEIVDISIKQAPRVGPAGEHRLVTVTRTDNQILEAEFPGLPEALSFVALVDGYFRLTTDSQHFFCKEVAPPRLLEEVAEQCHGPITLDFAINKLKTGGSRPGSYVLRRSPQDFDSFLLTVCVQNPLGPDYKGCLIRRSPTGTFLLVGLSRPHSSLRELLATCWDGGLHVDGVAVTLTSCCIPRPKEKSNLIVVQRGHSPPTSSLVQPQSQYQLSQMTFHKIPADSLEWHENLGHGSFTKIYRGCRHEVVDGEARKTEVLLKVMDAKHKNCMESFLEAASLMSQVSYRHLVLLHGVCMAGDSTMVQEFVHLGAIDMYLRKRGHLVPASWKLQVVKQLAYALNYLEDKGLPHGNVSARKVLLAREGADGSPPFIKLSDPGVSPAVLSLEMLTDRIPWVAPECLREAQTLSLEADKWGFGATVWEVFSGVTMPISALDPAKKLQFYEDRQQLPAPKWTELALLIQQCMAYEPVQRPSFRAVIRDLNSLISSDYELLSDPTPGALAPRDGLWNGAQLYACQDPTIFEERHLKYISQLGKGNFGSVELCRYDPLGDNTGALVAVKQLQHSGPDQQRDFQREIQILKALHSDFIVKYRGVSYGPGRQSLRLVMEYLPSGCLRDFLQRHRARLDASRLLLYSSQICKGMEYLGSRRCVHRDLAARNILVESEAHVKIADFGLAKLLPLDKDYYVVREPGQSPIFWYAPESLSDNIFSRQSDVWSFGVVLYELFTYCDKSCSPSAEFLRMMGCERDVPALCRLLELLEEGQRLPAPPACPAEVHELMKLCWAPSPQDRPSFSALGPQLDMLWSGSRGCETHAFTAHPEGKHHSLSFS

Compound | IC50 (TYK2) | IC50 (JAK2) | IC50 [1] | IC50 (JAK3) | IC50 [2] | IC50 (JAK1) | IC50 ([1]; Homo sapiens) | IC50 ([2]; T-cell)
6-[5-fluoro-4-hydroxy-2-(2,2,2-trifluoroethyl)phenyl]-4-({5-methoxy-2-[methyl(methylsulfonyl)amino]benzyl}amino)-N-methyl-1H-pyrazolo[4,3-c]pyridine-3-carboxamide [Example 50] | 10.5 nM | 10.7 nM | 321 nM | 47.4 nM |  |  |  | 
CNC(=O)c1n[nH]c2cc(-c3cc(F)c(O)cc3CC(F)(F)F)nc(NCc3ccccc3N(C)S(C)(=O)=O)c12 [Example 20, 6-[5-fluoro-4-hydroxy-2-(2,2,2-trifluoroethyl)phenyl]-N-methyl-4-({2-[methyl(methylsulfon-yl)amino]benzyl}ami-no)-1H-pyrazolo[4,3-c]pyridine-3-carboxamide] |  |  | 18.8 nM |  | 31.9 nM |  |  | 
CNC(=O)c1n[nH]c2cc(-c3cc(F)c(O)cc3CC(F)(F)F)nc(NCc3ccccc3N(C)S(=O)(=O)N(C)C)c12 [Example 57] | 149 nM | 93.4 nM | 60.4 nM | 409 nM |  | 21.1 nM |  | 
CNC(=O)c1n[nH]c2cc(-c3cc(F)c(O)cc3CC(F)(F)F)nc(NCc3ccccc3N(C)S(=O)(=O)c3cn(C)cn3)c12 [Example 59] | 22.6 nM | 23.5 nM | 290 nM | 112 nM |  | 5.3 nM |  | 
CNC(=O)c1n[nH]c2nc(-c3cc(F)c(O)cc3CC(F)(F)F)nc(NCc3ccccc3N(C)S(C)(=O)=O)c12 [Example 94, 6-(5-Fluoro-4-hydroxy-2-(2,2,2-trifluoroethyl)phenyl)-N-methyl-4-((2-(N-methylmethylsulfonamido)benzyl)amino)-1H-pyrazolo[3,4-d]pyrimidine-3-carboxamide] | 503 nM | 27.7 nM |  | 71.2 nM |  | 5.4 nM | 126 nM | 
CNC(=O)c1n[nH]c2nc(-c3cc(F)c(O)cc3CC(F)(F)F)nc(NCc3cc(F)ccc3N(C)S(C)(=O)=O)c12 [Example 104, 4-((5-fluoro-2-(N-methylmethylsulfon-amido)benzyl)amino)-6-(5-fluoro-4-hydroxy-2-(2,2,2-trifluoroethyl)phenyl)-N-methyl-1H-pyrazolo[3,4-d]pyrimidine-3-carboxamide] | 1380 nM | 66.1 nM | 292 nM | 113 nM |  | 10.4 nM |  | 
CCc1cc(O)c(F)cc1-c1nc(NCc2ccccc2N(C)S(C)(=O)=O)c2cn[nH]c2n1 [Example 155, N-[2-({[6-(2-Ethyl-5-fluoro-4-hydroxyphenyl)-1H-pyrazolo[3,4-d]pyrimidin-4-yl]amino}methyl)phenyl]-N-methylmethanesulfonamide hydrochloride] | 61 nM | 5 nM |  | 15.5 nM |  | 1.2 nM | 30.1 nM | 
CCc1cc(O)cc(C)c1-c1cc2[nH]ncc2c(NCc2ccccc2N(C)S(C)(=O)=O)n1 [Example 156, N-(2-(((6-(2-Ethyl-4-hydroxy-6-methylphenyl)-1H-pyrazolo[4,3-c]pyridin-4-yl)amino)methyl)phenyl)-N-methylmethanesulfonamide] | 10000 nM |  |  | 177 nM |  | 25.5 nM | 72.4 nM | 
CCc1cc(O)c(F)cc1-c1cc2[nH]nc(-c3nc(C)c(C)[nH]3)c2c(NCc2ccccc2N(C)S(C)(=O)=O)n1 [Example 158, N-[2-({[3-(4,5-Dimethyl-1H-imidazol-2-yl)-6-(2-ethyl-5-fluoro-4-hydroxyphenyl)-1H-pyrazolo[4,3-c]pyridin-4-yl]amino}methyl)phenyl]-N-methylmethanesulfonamide] | 33.3 nM | 27.8 nM |  | 114 nM |  | 5.3 nM | 31.3 nM | 
CSCCNc1nc(-c2cc(F)c(O)cc2CC(F)(F)F)cc2[nH]nc(-c3nc4c([nH]3)CCN(Cc3ccccc3)C4)c12 [Example 161, 4-[3-(5-Benzyl-4,5,6,7-tetrahydro-1H-imidazo[4,5-c]pyridin-2-yl)-4-{[2-(methylsulfanyl)-ethyl]amino}-1H-pyrazolo[4,3-c]pyridin-6-yl]-2-fluoro-5-(2,2,2-trifluoroethyl)phenol] |  |  |  |  |  |  | > 10000 nM | 
Cc1nnc(-c2n[nH]c3cc(-c4cc(F)c(O)cc4CC(F)(F)F)nc(NCc4ccccc4N(C)S(C)(=O)=O)c23)[nH]1 [Example 164, N-{2-[({6-[5-Fluoro-4-hydroxy-2-(2,2,2-trifluoroethyl)phenyl]-3-(5-methyl-4H-1,2,4-triazol-3-yl)-1H-pyrazolo[4,3-c]pyridin-4-yl}amino)methyl]phenyl}-N-methylmethanesulfonamide] |  |  |  |  |  |  | 3020 nM | 3900 nM
CN(c1ccccc1CNc1nc(-c2cc(F)c(O)cc2CC(F)(F)F)nc2[nH]nc(-c3nnc(C4CCN(C(=O)CN5CCCC5)CC4)[nH]3)c12)S(C)(=O)=O [Example 168, N-(2-{[(6-[5-Fluoro-4-hydroxy-2-(2,2,2-trifluoroethyl)phenyl]-3-{5-[1-(pyrrolidin-1-ylacetyl)piperidin-4-yl]-4H-1,2,4-triazol-3-yl}-1H-pyrazolo[3,4-d]pyrimidin-4-yl)amino]methyl}phenyl)-N-methylmethanesulfonamide] |  |  |  |  |  |  | 13300 nM | 
CN(c1ccc(O)cc1CNc1nc(-c2cc(F)c(O)cc2CC(F)(F)F)nc2[nH]nc(-c3nc4c([nH]3)CCNC4)c12)S(C)(=O)=O [Example 169, N-{2-[({6-[5-Fluoro-4-hydroxy-2-(2,2,2-trifluoroethyl)phenyl]-3-(4,5,6,7-tetrahydro-1H-imidazo[4,5-c]pyridin-2-yl)-1H-pyrazolo[3,4-d]pyrimidin-4-yl}amino)methyl]-4-hydroxyphenyl}-N-methylmethanesulfonamide] |  |  |  |  |  |  | > 10000 nM | 
CN(C)CCNC(=O)N1CCc2[nH]c(-c3n[nH]c4nc(-c5cc(F)c(O)cc5CC(F)(F)F)nc(NCc5cc(O)ccc5N(C)S(C)(=O)=O)c34)nc2C1 [Example 171, N-[2-(Dimethylamino)ethyl]-2-{6-[5-fluoro-4-hydroxy-2-(2,2,2-trifluoroethyl)phenyl]-4-({5-hydroxy-2-[methyl(methylsulfonyl)amino]benzyl}amino)-1H-pyrazolo[3,4-d]pyrimidin-3-yl}-1,4,6,7-tetrahydro-5H-imidazo[4,5-c]pyridine-5-carboxamide] |  |  |  |  |  |  | 1580 nM | 1090 nM

Source: US9518052B2, “Pyrazolopyridines and pyrazolopyrimidines” (Pfizer Inc., priority 2014, dated 2016)
